Measurements taken from patent US7888386B2, “3-(phenoxyphenylmethyl)pyrrolidine compounds” (Theravance, Inc., priority 2008, dated 2011).
Read-outs that look alike come from different tables or passages of the source.

Key:
hSERT = target: T1, hSERT (Homo sapiens, UniProt P31645); test: hSERT binding assay (Assay 1)
T1 construct: expressed in transfected cells; host or cells: HEK-293 derived cell line, stably transfected; membrane preparation
Protocol: (§1) Membrane radioligand binding assays were used to measure competitive inhibition of labeled ligand (^3H-citalopram or ^3H-nisoxetine or ^3H-WIN35428) binding to membranes prepared from cells expressing the respective human recombinant transporter (hSERT or hNET or hDAT) in order to determine the pKi values of test compounds at the transporters.
(§2) Recombinant human embryonic kidney (HEK-293) derived cell lines stably transfected with hSERT or hNET, respectively, were grown in DMEM medium supplemented with 10% dialyzed FBS (for hSERT) or FBS (for hNET), 100 μg/ml penicillin, 100 μg/ml streptomycin, 2 mM L-glutamine and 250 μg/ml of the aminoglycoside antibiotic G418, in a 5% CO2 humidified incubator at 37° C. When cultures reached 80% confluence, the cells were washed thoroughly in PBS (without Ca^2+ and Mg^2+) and lifted with 5 mM EDTA in PBS. Cells were pelleted by centrifugation, resuspended in lysis buffer (10 mM Tris-HCl, pH 7.5 containing 1 mM EDTA), homogenized, pelleted by centrifugation, then resuspended in 50 mM Tris-HCl, pH 7.5 and 10% sucrose at 4° C. Protein concentration of the membrane suspension was determined using a Bio-Rad Bradford Protein Assay kit. Membranes were snap frozen and stored at −80° C. Chinese hamster ovary membranes expressing hDAT (CHO-DAT) were purchased from PerkinElmer and stored at −80° C.
(§3) Stock solutions (10 mM in DMSO) of test compound were prepared and serial dilutions made using Dilution Buffer (50 mM Tris-HCl, 120 mM NaCl, 5 mM KCl, pH 7.4, 0.1% BSA, 400 μM ascorbic acid).
(§4) Following a 60 minute incubation at 22° C. (or a period sufficient to reach equilibrium), the membranes were harvested by rapid filtration over a 96-well UniFilter GF/B plate, pretreated with 0.3% polyethyleneimine, and washed 6 times with 300 μl wash buffer (50 mM Tris-HCl, 0.9% NaCl, pH 7.5 at 4° C.). Plates were dried overnight at room temperature, ˜45 μl of MicroScint™-20 (Perkin Elmer) added and bound radioactivity quantitated via liquid scintillation spectroscopy. Competitive inhibition curves and saturation isotherms were analyzed using GraphPad Prism Software package (GraphPad Software, Inc., San Diego, Calif.). IC50 values were generated from concentration response curves using the Sigmoidal Dose Response (variable slope) algorithm in Prism GraphPad.

hNET = target: T2, hNET (Homo sapiens, UniProt P23975); test: hNET binding assay (Assay 1); settings: read-out: NET pKi (converted)
T2 construct: expressed in transfected cells; host or cells: HEK-293 derived cell line, stably transfected; membrane preparation
T2 sequence (P23975 whole entry): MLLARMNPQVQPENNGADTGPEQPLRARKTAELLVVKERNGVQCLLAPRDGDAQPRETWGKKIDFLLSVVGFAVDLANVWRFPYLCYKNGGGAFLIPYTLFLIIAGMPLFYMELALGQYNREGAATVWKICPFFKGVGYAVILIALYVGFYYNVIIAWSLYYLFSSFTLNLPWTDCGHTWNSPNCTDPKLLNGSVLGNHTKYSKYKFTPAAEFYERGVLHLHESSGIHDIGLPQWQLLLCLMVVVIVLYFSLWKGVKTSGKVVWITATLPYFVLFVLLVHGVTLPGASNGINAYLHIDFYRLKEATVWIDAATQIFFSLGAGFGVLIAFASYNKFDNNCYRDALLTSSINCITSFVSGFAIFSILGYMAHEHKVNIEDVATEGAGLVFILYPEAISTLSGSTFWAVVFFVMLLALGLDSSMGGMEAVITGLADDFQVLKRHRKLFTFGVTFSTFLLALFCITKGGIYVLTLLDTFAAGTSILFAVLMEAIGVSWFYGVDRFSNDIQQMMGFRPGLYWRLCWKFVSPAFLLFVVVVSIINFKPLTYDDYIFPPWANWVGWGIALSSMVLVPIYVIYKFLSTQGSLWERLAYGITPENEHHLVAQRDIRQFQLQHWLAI
Protocol: as §1, §2, §3, §4

[1] = ratio of SERT Ki to NET Ki from binding assays
[2] = ratio of SERT Ki to NET Ki (binding)
[3] = ratio of binding Ki at hSERT to Ki at hNET, rounded off to the nearest tenth
[4] = membranes of HEK-293 cells expressing hNET, 1.0 nM 3H-nisoxetine
[5] = ratio of binding Ki at SERT to Ki at NET, the tables list only compounds with a ratio in the range 0.1-100

T1 sequence (P31645 whole entry): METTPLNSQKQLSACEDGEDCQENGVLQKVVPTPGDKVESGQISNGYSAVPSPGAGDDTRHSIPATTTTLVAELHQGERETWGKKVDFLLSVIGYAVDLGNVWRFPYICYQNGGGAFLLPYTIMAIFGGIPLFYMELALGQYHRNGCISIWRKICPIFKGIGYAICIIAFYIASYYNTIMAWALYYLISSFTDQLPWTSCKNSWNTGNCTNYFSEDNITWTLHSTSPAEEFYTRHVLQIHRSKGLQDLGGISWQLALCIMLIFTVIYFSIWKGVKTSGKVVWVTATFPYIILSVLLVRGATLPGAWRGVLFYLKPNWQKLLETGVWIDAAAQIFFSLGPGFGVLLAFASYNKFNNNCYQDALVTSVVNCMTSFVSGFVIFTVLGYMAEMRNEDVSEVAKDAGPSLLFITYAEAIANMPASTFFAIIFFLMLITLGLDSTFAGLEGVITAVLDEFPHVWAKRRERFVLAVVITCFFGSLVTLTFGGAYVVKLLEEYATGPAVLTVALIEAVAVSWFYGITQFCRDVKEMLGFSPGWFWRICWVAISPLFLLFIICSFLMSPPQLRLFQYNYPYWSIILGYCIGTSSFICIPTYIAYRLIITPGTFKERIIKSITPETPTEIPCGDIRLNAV

Structure (SMILES)	SERT Ki/NET Ki (hSERT; [1])	Ki (hNET; hNET binding assay)	also measured
Fc1ccc(F)c(OC(c2ccccc2)C2CCNC2)c1 (racemic) [29-1]	4	2 nM	–
Clc1cc(Cl)c(Cl)c(O[C@H](c2ccccc2Cl)[C@@H]2CCNC2)c1 (racemic) [39-4]	–	–	SERT Ki/NET Ki (hSERT; [2]): 0.1; Ki (hNET; hNET binding): 3.98 nM
Cc1cc(F)cc([C@@H](Oc2c(Cl)ccc(C)c2Cl)[C@@H]2CCNC2)c1 (racemic) [41-23]	–	–	SERT Ki/NET Ki (hSERT; [2]): 0.5; Ki (hNET; hNET binding): 1.58 nM
Cc1ccc(Cl)c(O[C@@H](c2cc(F)cc(F)c2)[C@@H]2CCNC2)c1Cl (racemic) [41-25]	–	–	SERT Ki/NET Ki (hSERT; [2]): 0.2; Ki (hNET; hNET binding): 6.31 nM
Cc1ccc(Cl)c(OC(c2cc(F)cc(F)c2)C2CCNC2)c1Cl (racemic) [41-26]	–	–	SERT Ki/NET Ki (hSERT; [2]): 1.3; Ki (hNET; hNET binding): 0.501 nM
Cc1cccc([C@@H](Oc2ccccc2Cl)[C@@H]2CCNC2)c1 (racemic) [Compound 20-6]	–	–	SERT Ki/NET Ki (hSERT; [3]): 1.6; Ki (hNET; [4]): 3.98 nM
COc1ccccc1O[C@H](c1cccc(Cl)c1)[C@@H]1CCNC1 (racemic) [Compound 20-20]	–	–	SERT Ki/NET Ki (hSERT; [3]): 13; Ki (hNET; [4]): 2.51 nM
COc1ccccc1O[C@@H](c1cc(F)cc(F)c1)[C@@H]1CCNC1 (racemic) [Compound 20-31]	–	–	SERT Ki/NET Ki (hSERT; [3]): 6.3; Ki (hNET; [4]): 5.01 nM
COc1ccccc1OC(c1cc(F)cc(F)c1)C1CCNC1 (racemic) [Compound 20-32]	–	–	SERT Ki/NET Ki (hSERT; [3]): 10; Ki (hNET; [4]): 0.794 nM
COc1ccccc1O[C@@H](c1cc(C)cc(F)c1)[C@H]1CCNC1 (racemic) [Compound 20-36]	–	–	SERT Ki/NET Ki (hSERT; [3]): 7.9; Ki (hNET; [4]): 1.26 nM
COc1ccccc1O[C@@H](c1cc(C)cc(F)c1)[C@@H]1CCNC1 (racemic) [Compound 20-37]	–	–	SERT Ki/NET Ki (hSERT; [3]): 13; Ki (hNET; [4]): 6.31 nM
Fc1ccc(Oc2cccc(O[C@H](c3ccccc3)[C@@H]3CCNC3)c2)cc1 (racemic) [Compound 21-15]	–	–	SERT Ki/NET Ki (hSERT; [3]): 1; Ki (hNET; [4]): 2 nM
Cc1c(F)cccc1OC(c1ccccc1)C1CCNC1 (racemic) [Compound 25-17]	–	–	SERT Ki/NET Ki (hSERT; [3]): 0.2; Ki (hNET; [4]): 2.51 nM
CC(=O)c1ccccc1O[C@H](c1ccccc1)[C@@H]1CCNC1 (stereo in doubt) [Ex. 9-3, 1-[2-((R)-phenyl-(S)-pyrrolidin-3-yl-methoxy)phenyl]ethanone]	–	–	SERT Ki/NET Ki (hSERT; [3]): 50; Ki (hNET; [4]): 3.16 nM
Cc1ccc(OC(c2ccccc2)C2CCNC2)c(Cl)c1 (stereo not drawn) [27-10]	0.8	0.631 nM	–
Cc1cc(F)ccc1OC(c1ccccc1)C1CCNC1 (stereo not drawn) [27-13]	0.3	3.16 nM	–
Cc1cc(F)ccc1O[C@@H](c1ccccc1)[C@H]1CCNC1 [27-14]	0.3	2 nM	–
FC(F)(F)c1cc(Cl)ccc1OC(c1ccccc1)C1CCNC1 (stereo not drawn) [27-21]	0.6	–	–
CCc1cc(F)ccc1OC(c1ccccc1)C1CCNC1 (stereo not drawn) [27-23]	0.8	1 nM	–
COc1cc(F)ccc1OC(c1ccccc1)C1CCNC1 (stereo not drawn) [27-25]	4.6	0.794 nM	–
Cc1ccc(OC(c2ccccc2)C2CCNC2)c([N+](=O)[O-])c1 (stereo not drawn) [27-33]	1.6	–	–
COC(=O)c1cc(Cl)ccc1OC(c1ccccc1)C1CCNC1 (stereo not drawn) [27-34]	4	2.51 nM	–

Structure (SMILES)	SERT Ki/NET Ki (hSERT; [1])	Ki (hNET; hNET binding assay)	also measured
CCOC(=O)c1cc(Cl)ccc1O[C@@H](c1ccccc1)[C@H]1CCNC1 [27-36]	0.6	3.98 nM	–
N#Cc1cccc([C@H](Oc2ccc(Cl)cc2F)[C@H]2CCNC2)c1 [28-3]	0.5	6.31 nM	–
Fc1cc(F)cc(C(Oc2ccc(Cl)cc2F)C2CCNC2)c1 (stereo not drawn) [28-9]	0.3	3.16 nM	–
Fc1cc(Cl)cc(C(Oc2ccc(Cl)cc2F)C2CCNC2)c1 (stereo not drawn) [28-11]	0.8	2.51 nM	–
Cc1cc(F)cc(C(Oc2ccc(Cl)cc2F)C2CCNC2)c1 (stereo not drawn) [28-13]	0.5	5.01 nM	–
CCc1cc(F)ccc1OC(c1cc(F)cc(F)c1)C1CCNC1 (stereo not drawn) [28-14]	3.2	1.58 nM	–
COc1cc(F)ccc1OC(c1cc(F)cc(F)c1)C1CCNC1 (stereo not drawn) [28-17]	25	0.398 nM	–
COc1cc(Cl)ccc1O[C@@H](c1cc(F)cc(F)c1)[C@H]1CCNC1 [28-19]	0.8	1 nM	–
Fc1ccc(F)c(O[C@@H](c2ccccc2)[C@H]2CCNC2)c1 [29-2]	32	1.26 nM	–
Fc1ccc(F)c(O[C@H](c2ccccc2)[C@@H]2CCNC2)c1 [29-3]	0.5	7.94 nM	–
Fc1ccc(Cl)cc1OC(c1ccccc1)C1CCNC1 (stereo not drawn) [29-4]	1.6	1.26 nM	–
Fc1ccc(Cl)cc1O[C@@H](c1ccccc1)[C@H]1CCNC1 [29-5]	16	0.501 nM	–
Fc1ccc(Cl)cc1O[C@H](c1ccccc1)[C@@H]1CCNC1 [29-6]	0.3	3.98 nM	–
Fc1ccc(Br)cc1OC(c1ccccc1)C1CCNC1 (stereo not drawn) [29-7]	1.6	0.794 nM	–
Cc1ccc(F)c(OC(c2ccccc2)C2CCNC2)c1 (stereo not drawn) [29-8]	3.2	1.58 nM	–
Cc1ccc(F)c(O[C@@H](c2ccccc2)[C@H]2CCNC2)c1 [29-9]	10	1.26 nM	–
Fc1ccc(Cl)c(O[C@H](c2ccccc2)[C@@H]2CCNC2)c1 [29-13]	0.2	–	–
Cc1ccc(Cl)cc1OC(c1ccccc1)C1CCNC1 (stereo not drawn) [29-18]	0.1	–	–
COc1ccc(C)cc1OC(c1ccccc1)C1CCNC1 (stereo not drawn) [29-27]	2	–	–
Cc1cccc(Cl)c1OC(c1ccccc1)C1CCNC1 (stereo not drawn) [31-13]	0.6	–	–
Fc1cc(F)cc(C(Oc2cc(Cl)ccc2F)C2CCNC2)c1 (stereo not drawn) [32-2]	2.5	–	–
COc1ccc(F)c(OC(c2ccccc2Cl)C2CCNC2)c1 (stereo not drawn) [32-3]	4	–	–

Structure (SMILES)	SERT Ki/NET Ki (hSERT; [1])	Ki (hNET; hNET binding assay)	also measured
Clc1ccc(Cl)c(OC(c2ccccc2Cl)C2CCNC2)c1 (stereo not drawn) [32-7]	0.6	–	–
Fc1ccc(C(Oc2cc(Cl)ccc2Cl)C2CCNC2)cc1 (stereo not drawn) [32-11]	4	–	–
COc1cccc(C(Oc2cc(Cl)ccc2Cl)C2CCNC2)c1 (stereo not drawn) [32-13]	0.3	–	–
N#Cc1cccc(C(Oc2cc(Cl)ccc2Cl)C2CCNC2)c1 (stereo not drawn) [32-15]	13	–	–
NC(=O)c1cccc([C@H](Oc2cc(Cl)ccc2Cl)[C@H]2CCNC2)c1 [32-17]	2	–	–
Fc1cc(F)cc(C(Oc2cc(Cl)ccc2Cl)C2CCNC2)c1 (stereo not drawn) [32-24]	7.9	–	–
Fc1cc(F)cc([C@H](Oc2cc(Cl)ccc2Cl)[C@H]2CCNC2)c1 [32-25]	25	–	–
Cc1ccc(OC(c2ccccc2)C2CCNC2)cc1F (stereo not drawn) [33-3]	0.3	–	–
Fc1cc(Cl)cc(OC(c2ccccc2)C2CCNC2)c1 (stereo not drawn) [34-4]	0.3	–	–
Fc1cc(F)cc(C(Oc2cc(Cl)cc(Cl)c2)C2CCNC2)c1 (stereo not drawn) [35-16]	–	–	SERT Ki/NET Ki (hSERT; [2]): 0.5
Cc1ccc(Cl)c(OC(c2ccccc2)C2CCNC2)c1Cl (stereo not drawn) [40-31]	–	–	SERT Ki/NET Ki (hSERT; [2]): 0.6
Cc1ccc(Cl)c(OC(c2ccccc2)C2CCNC2)c1Cl (stereo not drawn) [40-32]	–	–	SERT Ki/NET Ki (hSERT; [2]): 1
Cc1ccc(Cl)c(OC(c2ccccc2)C2CCNC2)c1Cl (stereo not drawn) [40-33]	–	–	SERT Ki/NET Ki (hSERT; [2]): 3.2
Cc1ccc(Cl)c(OC(c2ccccc2)C2CCNC2)c1Cl (stereo not drawn) [40-34]	–	–	SERT Ki/NET Ki (hSERT; [2]): 0.1
Fc1cc(F)cc(C(Oc2c(Cl)ccc(Cl)c2Cl)C2CCNC2)c1 (stereo not drawn) [41-13]	–	–	SERT Ki/NET Ki (hSERT; [2]): 2
Cc1cc(F)cc(C(Oc2c(Cl)ccc(C)c2Cl)C2CCNC2)c1 (stereo not drawn) [41-22]	–	–	SERT Ki/NET Ki (hSERT; [2]): 0.3
NC(=O)c1cccc(C(Oc2c(F)ccc(F)c2Cl)C2CCNC2)c1 (stereo not drawn) [41-38]	–	–	SERT Ki/NET Ki (hSERT; [2]): 0.1
N#Cc1cccc([C@H](Oc2c(F)cc(F)cc2F)[C@H]2CCNC2)c1 [45-3]	–	–	SERT Ki/NET Ki (hSERT; [5]): 3.2
Fc1c(F)c(F)c(O[C@H](c2ccccc2)[C@@H]2CCNC2)c(F)c1F [49-2]	–	–	SERT Ki/NET Ki (hSERT; [5]): 0.2
c1ccc(COc2ccccc2OC(c2ccccc2)C2CCNC2)cc1 (stereo not drawn) [Compound 19-23]	–	–	SERT Ki/NET Ki (hSERT; [3]): 3.2
Fc1c(Cl)cccc1OC(c1ccccc1)C1CCNC1 (stereo not drawn) [Compound 25-4]	–	–	SERT Ki/NET Ki (hSERT; [3]): 5
c1ccc(OC(c2ccccc2)C2CCNC2)cc1 (stereo not drawn) [Ex. 17-1, 3-(Phenoxyphenylmethyl)pyrrolidine]	–	–	Ki (hNET; [4]): 6.31 nM
